Earlier results in PMC11809490 (RSC Advances, 2025).
In brackets after ≈: the same amount, converted by molar mass.

Tests used:
Conditions in all cases: cited from earlier work
[1] = test system: MDA-MB-231
[2] = test system: P388
[3] = test system: HCT-8
[4] = test system: A-549

SMILES: CN1C[C@@H](c2c[nH]c3cc(Br)ccc23)N(C)C[C@@H]1c1c[nH]c2cc(Br)ccc12 [Dragmacidin B]
- IC50 MDA-MB-231 [1]: 1 to 10 µg/mL
- IC50 P388 [2]: 15 µg/mL (≈ 29.9 µM)
- IC50 HCT-8 [3]: 1 to 10 µg/mL
- IC50 A-549 [4]: 1 to 10 µg/mL
